From US20020137929A1, “1 - (3-heterocyclylphenyl) isothiourea, -isourea, -guanidine and -amidine herbicidal agents” (Intellectual Property Department, BASF Aktiengesellschaft, priority 1998, published 2002)

Key:
AMBEL (Ragweed, Common) [1] = assay: Postemergence herbicidal evaluation; type: in vivo, Ambrosia artemisifolia; settings: postemergence
Outline: (§1)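 Each compound, dispersed in an acetone/water mix (50/50) carrying 0.5% TWEEN 20, is nozzle-sprayed at 40 psi on approximately two-week-old seedlings at about 0.0156–0.500 kg/ha. Plants are assessed 4–5 weeks afterward on a 0–9 scale relative to control; duplicate tests are averaged.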

[2] = system: IPOHE (Morningglory, Ivyleaf); assay: Postemergence herbicidal evaluation; type: in vivo, Ipomoea hederacea; settings: postemergence
Outline: as §1

[3] = system: GLXMAW (Soybean, Williams); assay: Postemergence herbicidal evaluation; type: in vivo, Glycine max, (L.) Merr. cv Williams; settings: postemergence
Outline: as §1

ZEAMX (Corn, Field) = assay: Postemergence herbicidal evaluation; type: in vivo, Zea mays; settings: postemergence
Outline: as §1

ABUTH (Velvetleaf) = assay: Preemergence herbicidal evaluation; type: in vivo, Abutilon theophrasti; settings: rated 4-5 weeks after treatment
Outline: (§2)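 Seeds were mixed with potting soil and planted on about one inch of soil, then sprayed with test compound in aqueous acetone at about 0.0156 to 0.500 kg per hectare. Plants grew under standard greenhouse care and were visually rated 0-9 against untreated controls 4-5 weeks post-treatment.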

AMBEL (Ragweed, Common) [4] = assay: Preemergence herbicidal evaluation; type: in vivo, Ambrosia artemisifolia; settings: rated 4-5 weeks after treatment
Outline: as §2

CASOB (Sicklepod) = assay: Preemergence herbicidal evaluation; type: in vivo, Cassia obtusifolia; settings: rated 4-5 weeks after treatment
Outline: as §2

GALAP (Galium) = assay: Preemergence herbicidal evaluation; type: in vivo, Galium aparine; settings: rated 4-5 weeks after treatment
Outline: as §2

ECHCG (Barnyardgrass) = assay: Preemergence herbicidal evaluation; type: in vivo, Echinochloa crus-galli; settings: rated 4-5 weeks after treatment
Outline: as §2

SETVI (Foxtail, Green) = assay: Preemergence herbicidal evaluation; type: in vivo, Setaria viridis; settings: rated 4-5 weeks after treatment
Outline: as §2

[5] = system: GLXMAW (Soybean, Williams); assay: Preemergence herbicidal evaluation; type: in vivo, Glycine max, (L.) Merr. cv Williams; settings: rated 4-5 weeks after treatment
Outline: as §2

CYPSE (Flatsedge) = assay: Preemergence weed control under flooded paddy conditions; type: in vivo, Cyperus serotinus; settings: rated 3-4 weeks after treatment
Outline: (§3)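 Herbicidal effect is scored visually on a 0-9 scale against an untreated control, three to four weeks after compounds are pipetted into the flood water (1.5 to 3 cm deep) over seeds planted in silt loam at 0.5 cm depth. Rates: about 0.0313 to 0.500 kg/ha.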

[6] = system: SAGPY (Arrowhead (Pygmaea)); assay: as above; type: in vivo, Sagittaria pygmaea; settings: rated 3-4 weeks after treatment
Outline: as §3

[7] = rate 0.0625 kg/ha, rating scale 0-9
[8] = rate 0.1250 kg/ha, rating scale 0-9
[9] = rate 0.2500 kg/ha, rating scale 0-9

Cn1c(C(F)(F)F)cc(=O)n(-c2cc(N=C3SCC(=O)N3Cc3cccnc3)c(Cl)cc2F)c1=O [Compound 132, 3-{4-Chloro-2-fluoro-5-{[4-oxo-3-(3-pyridylmethyl)-2-thiazolidinylidene]amino}phenyl}-1-methyl-6-(trifluoromethyl)-2,4 (1H,3H)-pyrimidinedione]
Herbicidal rating AMBEL (AMBEL (Ragweed, Common) [1]; rate 0.0156 kg/ha): 5.0 | Herbicidal rating AMBEL (AMBEL (Ragweed, Common) [1]; rate 0.0313 kg/ha): 9.0 | Herbicidal rating AMBEL (AMBEL (Ragweed, Common) [1]; rate 0.0625 kg/ha): 9.0 | Herbicidal rating IPOHE ([2]; rate 0.0156 kg/ha): 6.0 | Herbicidal rating IPOHE ([2]; rate 0.0313 kg/ha): 9.0 | Herbicidal rating IPOHE ([2]; rate 0.0625 kg/ha): 9.0 | Herbicidal rating GLXMAW ([3]; rate 0.0156 kg/ha): 5.0 | Herbicidal rating GLXMAW ([3]; rate 0.0313 kg/ha): 5.0 | Herbicidal rating GLXMAW ([3]; rate 0.0625 kg/ha): 6.0 | Herbicidal rating ZEAMX (ZEAMX (Corn, Field); rate 0.0156 kg/ha): 3.5 | Herbicidal rating ZEAMX (ZEAMX (Corn, Field); rate 0.0313 kg/ha): 4.0 | Herbicidal rating ZEAMX (ZEAMX (Corn, Field); rate 0.0625 kg/ha): 4.5 | Preemergence herbicidal rating ABUTH (ABUTH (Velvetleaf); [7]): 9.0 | Preemergence herbicidal rating ABUTH (ABUTH (Velvetleaf); [8]): 9.0 | Preemergence herbicidal rating ABUTH (ABUTH (Velvetleaf); [9]): 9.0 | Preemergence herbicidal rating AMBEL (AMBEL (Ragweed, Common) [4]; [7]): 0.0 | Preemergence herbicidal rating AMBEL (AMBEL (Ragweed, Common) [4]; [8]): 4.0 | Preemergence herbicidal rating AMBEL (AMBEL (Ragweed, Common) [4]; [9]): 7.0 | Preemergence herbicidal rating CASOB (CASOB (Sicklepod); [7]): 0.0 | Preemergence herbicidal rating CASOB (CASOB (Sicklepod); [9]): 0.0 | Preemergence herbicidal rating GALAP (GALAP (Galium); [7]): 4.0 | Preemergence herbicidal rating GALAP (GALAP (Galium); [8]): 4.0 | Preemergence herbicidal rating GALAP (GALAP (Galium); [9]): 5.0 | Preemergence herbicidal rating ECHCG (ECHCG (Barnyardgrass); [7]): 0.0 | Preemergence herbicidal rating ECHCG (ECHCG (Barnyardgrass); [8]): 0.0 | Preemergence herbicidal rating ECHCG (ECHCG (Barnyardgrass); [9]): 7.0 | Preemergence herbicidal rating SETVI (SETVI (Foxtail, Green); [7]): 0.0 | Preemergence herbicidal rating SETVI (SETVI (Foxtail, Green); [8]): 3.0 | Preemergence herbicidal rating SETVI (SETVI (Foxtail, Green); [9]): 9.0 | Preemergence herbicidal rating GLXMAW [5, 7]: 0.0 | Preemergence herbicidal rating GLXMAW [5, 8]: 0.0 | Preemergence herbicidal rating GLXMAW [5, 9]: 2.0 | herbicidal effect rating, CYPSE (CYPSE (Flatsedge); 0.0313 kg/ha): 0.0 | herbicidal effect rating, CYPSE (CYPSE (Flatsedge); 0.0625 kg/ha): 0.0 | herbicidal effect rating, CYPSE (CYPSE (Flatsedge); 0.1250 kg/ha): 0.0 | herbicidal effect rating, CYPSE (CYPSE (Flatsedge); 0.2500 kg/ha): 0.0 | herbicidal effect rating, SAGPY ([6]; 0.0313 kg/ha): 0.0 | herbicidal effect rating, SAGPY ([6]; 0.0625 kg/ha): 0.0 | herbicidal effect rating, SAGPY ([6]; 0.1250 kg/ha): 0.0 | herbicidal effect rating, SAGPY ([6]; 0.2500 kg/ha): 0.0

CC(C)N1C(=O)CSC1=Nc1cc(-n2c(=O)cc(C(F)(F)F)n(C)c2=O)c(F)cc1Cl [Compound 164, 3-{4-Chloro-2-fluoro-5-[(3-isopropyl-4-oxo-2-thiazolidinylidene)amino]phenyl}-1-methyl-6-(trifluoromethyl)-2,4(1H,3H)-pyrimidinedione]
Herbicidal rating AMBEL (AMBEL (Ragweed, Common) [1]; rate 0.0156 kg/ha): 7.0 | Herbicidal rating AMBEL (AMBEL (Ragweed, Common) [1]; rate 0.0313 kg/ha): 9.0 | Herbicidal rating AMBEL (AMBEL (Ragweed, Common) [1]; rate 0.0625 kg/ha): 9.0 | Herbicidal rating AMBEL (AMBEL (Ragweed, Common) [1]; rate 0.1250 kg/ha): 9.0 | Herbicidal rating IPOHE ([2]; rate 0.0156 kg/ha): 9.0 | Herbicidal rating IPOHE ([2]; rate 0.0313 kg/ha): 9.0 | Herbicidal rating IPOHE ([2]; rate 0.0625 kg/ha): 9.0 | Herbicidal rating IPOHE ([2]; rate 0.1250 kg/ha): 9.0 | Herbicidal rating GLXMAW ([3]; rate 0.0156 kg/ha): 6.0 | Herbicidal rating GLXMAW ([3]; rate 0.0313 kg/ha): 6.0 | Herbicidal rating GLXMAW ([3]; rate 0.0625 kg/ha): 7.0 | Herbicidal rating GLXMAW ([3]; rate 0.1250 kg/ha): 7.5 | Herbicidal rating ZEAMX (ZEAMX (Corn, Field); rate 0.0156 kg/ha): 5.0 | Herbicidal rating ZEAMX (ZEAMX (Corn, Field); rate 0.0313 kg/ha): 5.0 | Herbicidal rating ZEAMX (ZEAMX (Corn, Field); rate 0.0625 kg/ha): 5.5 | Herbicidal rating ZEAMX (ZEAMX (Corn, Field); rate 0.1250 kg/ha): 6.5 | Preemergence herbicidal rating ABUTH (ABUTH (Velvetleaf); 0.0156 kg/ha): 6.0 | Preemergence herbicidal rating ABUTH (ABUTH (Velvetleaf); 0.0313 kg/ha): 9.0 | Preemergence herbicidal rating ABUTH (ABUTH (Velvetleaf); 0.0625 kg/ha): 9.0 | Preemergence herbicidal rating ABUTH (ABUTH (Velvetleaf); 0.1250 kg/ha): 9.0 | Preemergence herbicidal rating ABUTH (ABUTH (Velvetleaf); 0.2500 kg/ha): 9.0 | Preemergence herbicidal rating ABUTH (ABUTH (Velvetleaf); 0.5000 kg/ha): 9.0 | Preemergence herbicidal rating AMBEL (AMBEL (Ragweed, Common) [4]; 0.0156 kg/ha): 6.0 | Preemergence herbicidal rating AMBEL (AMBEL (Ragweed, Common) [4]; 0.0313 kg/ha): 7.0 | Preemergence herbicidal rating AMBEL (AMBEL (Ragweed, Common) [4]; 0.0625 kg/ha): 7.0 | Preemergence herbicidal rating AMBEL (AMBEL (Ragweed, Common) [4]; 0.1250 kg/ha): 7.0 | Preemergence herbicidal rating AMBEL (AMBEL (Ragweed, Common) [4]; 0.2500 kg/ha): 9.0 | Preemergence herbicidal rating AMBEL (AMBEL (Ragweed, Common) [4]; 0.5000 kg/ha): 9.0 | Preemergence herbicidal rating CASOB (CASOB (Sicklepod); 0.0156 kg/ha): 1.0 | Preemergence herbicidal rating CASOB (CASOB (Sicklepod); 0.0313 kg/ha): 0.0 | Preemergence herbicidal rating CASOB (CASOB (Sicklepod); 0.0625 kg/ha): 7.0 | Preemergence herbicidal rating CASOB (CASOB (Sicklepod); 0.1250 kg/ha): 7.0 | Preemergence herbicidal rating CASOB (CASOB (Sicklepod); 0.2500 kg/ha): 9.0 | Preemergence herbicidal rating CASOB (CASOB (Sicklepod); 0.5000 kg/ha): 5.0 | Preemergence herbicidal rating GALAP (GALAP (Galium); 0.0156 kg/ha): 3.0 | Preemergence herbicidal rating GALAP (GALAP (Galium); 0.0313 kg/ha): 4.0 | Preemergence herbicidal rating GALAP (GALAP (Galium); 0.0625 kg/ha): 4.0 | Preemergence herbicidal rating GALAP (GALAP (Galium); 0.1250 kg/ha): 9.0 | Preemergence herbicidal rating GALAP (GALAP (Galium); 0.2500 kg/ha): 7.0 | Preemergence herbicidal rating GALAP (GALAP (Galium); 0.5000 kg/ha): 9.0 | Preemergence herbicidal rating ECHCG (ECHCG (Barnyardgrass); 0.0156 kg/ha): 0.0 | Preemergence herbicidal rating ECHCG (ECHCG (Barnyardgrass); 0.0313 kg/ha): 7.0 | Preemergence herbicidal rating ECHCG (ECHCG (Barnyardgrass); 0.0625 kg/ha): 7.0 | Preemergence herbicidal rating ECHCG (ECHCG (Barnyardgrass); 0.1250 kg/ha): 9.0 | Preemergence herbicidal rating ECHCG (ECHCG (Barnyardgrass); 0.2500 kg/ha): 9.0 | Preemergence herbicidal rating ECHCG (ECHCG (Barnyardgrass); 0.5000 kg/ha): 9.0 | Preemergence herbicidal rating SETVI (SETVI (Foxtail, Green); 0.0156 kg/ha): 4.0 | Preemergence herbicidal rating SETVI (SETVI (Foxtail, Green); 0.0313 kg/ha): 9.0 | Preemergence herbicidal rating SETVI (SETVI (Foxtail, Green); 0.0625 kg/ha): 9.0 | Preemergence herbicidal rating SETVI (SETVI (Foxtail, Green); 0.1250 kg/ha): 9.0 | Preemergence herbicidal rating SETVI (SETVI (Foxtail, Green); 0.2500 kg/ha): 9.0 | Preemergence herbicidal rating SETVI (SETVI (Foxtail, Green); 0.5000 kg/ha): 9.0 | Preemergence herbicidal rating GLXMAW ([5]; 0.0156 kg/ha): 1.0 | Preemergence herbicidal rating GLXMAW ([5]; 0.0313 kg/ha): 2.0 | Preemergence herbicidal rating GLXMAW ([5]; 0.0625 kg/ha): 5.0 | Preemergence herbicidal rating GLXMAW ([5]; 0.1250 kg/ha): 7.0 | Preemergence herbicidal rating GLXMAW ([5]; 0.2500 kg/ha): 7.0 | Preemergence herbicidal rating GLXMAW ([5]; 0.5000 kg/ha): 7.0 | herbicidal effect rating, CYPSE (CYPSE (Flatsedge); 0.0313 kg/ha): 0.0 | herbicidal effect rating, CYPSE (CYPSE (Flatsedge); 0.0625 kg/ha): 0.0 | herbicidal effect rating, CYPSE (CYPSE (Flatsedge); 0.1250 kg/ha): 3.0 | herbicidal effect rating, CYPSE (CYPSE (Flatsedge); 0.2500 kg/ha): 7.0 | herbicidal effect rating, SAGPY ([6]; 0.0313 kg/ha): 4.0 | herbicidal effect rating, SAGPY ([6]; 0.0625 kg/ha): 4.0 | herbicidal effect rating, SAGPY ([6]; 0.1250 kg/ha): 5.0 | herbicidal effect rating, SAGPY ([6]; 0.2500 kg/ha): 6.0
